Results taken from ChEMBL document CHEMBL5528075, “Unleashing the Potential of Camptothecin: Exploring Innovative Strategies for Structural Modification and Therapeutic Advancements” (J Med Chem, 2024).
Converted amounts (≈) assume the structure as drawn. Values belong to the compound of their own block, whether it stands above or below them.

Key:
A549 [1] = experiment: Growth inhibition of human A549 cells incubated for 72 hrs by MTT assay; assay type: functional
MCF7 = experiment: Growth inhibition of human MCF7 cells incubated for 72 hrs by MTT assay; assay type: functional
K562 [2] = experiment: Growth inhibition of human K562 cells incubated for 72 hrs by MTT assay; assay type: functional
HCT-116 [3] = experiment: Growth inhibition of human HCT-116 cells incubated for 72 hrs by MTT assay; assay type: functional
[4] = Volume of distribution at steady state in mouse at 5 mg/kg, iv; assay type: ADME, organism-based; details: in vivo, read-out: Vdss
HCT-116 [5] = experiment: cells; details: Homo sapiens, HCT-116, 72 h
Description: Cytotoxicity against human HCT-116 cells assessed as reduction in cell growth incubated for 72 hrs by MTT assay

L1210 [6] = experiment: Cytotoxicity against mouse L1210 cells assessed as reduction in cell viability measured for 24 hrs by MTT assay; assay type: functional, cell-based; details: L1210, 24 h
HeLa [7] = experiment: Cytotoxicity against human HeLa cells assessed as reduction in cell viability measured for 48 hrs by MTT assay; assay type: functional, cell-based
HCT-116 [8] = experiment: Antitumor activity against human HCT-116 cells xenografted in mouse assessed as tumor growth inhibition at 5 mg/kg administered once for every 2 days for 2 weeks relative to control; assay type: functional; design: scale not given: the % may be the effect or the level left; details: time 2 day
A549 [9] = experiment: cells; details: Homo sapiens, A549, 48 h
Description: Cytotoxicity against human A549 cells assessed as reduction in cell viability measured after 48 hrs by MTT assay

[10] = Terminal half life in mouse at 8 mg/kg, iv; assay type: ADME, organism-based; details: in vivo, read-out: beta t1/2
[11] = Volume of distribution at steady state in mouse at 8 mg/kg, iv; assay type: ADME, organism-based; details: in vivo, read-out: Vdss
[12] = Aqueous solubility of compound at pH 7.4; assay type: physicochemical
A549 [13] = experiment: Antiproliferative activity against human A549 cells assessed as reduction in cell viability measured after 72 hrs by MTT assay; assay type: functional, cell-based; details: A549, 72 h
[14] = Clearance in mouse at 8 mg/kg, iv; assay type: ADME, organism-based; details: in vivo
HepG2 [15] = experiment: Cytotoxicity against human HepG2 cells assessed as reduction in cell growth incubated for 72 hrs by MTT assay; assay type: functional, cell-based; details: HepG2, 72 h
[16] = Toxicity in po dosed mouse assessed as lethal dose; assay type: organism-based; details: in vivo
[17] = Toxicity in ip dosed mouse assessed as lethal dose; assay type: organism-based; details: in vivo
[18] = AUC in mouse at 8 mg/kg, iv; assay type: ADME, organism-based; details: in vivo
[19] = Antiproliferative activity against human HCT116-SN6 cells assessed as reduction in cell viability measured after 72 hrs by MTT assay; assay type: functional, cell-based; details: HCT116-SN6, 72 h
K562 [20] = experiment: Cytotoxicity against human K562 cells assessed as reduction in cell growth incubated for 48 hrs by MTT assay; assay type: functional, cell-based; details: K562, 48 h
[21] = Toxicity in iv dosed mouse assessed as lethal dose; assay type: organism-based; details: in vivo
HCT-116 [22] = experiment: Cytotoxicity against human HCT-116 cells assessed as reduction in cell viability measured after 48 hrs by MTT assay; assay type: functional, cell-based; details: HCT-116, 48 h
HepG2 [23] = experiment: Cytotoxicity against human HepG2 cells assessed as cell growth inhibition measured after 48 hrs by MTT assay; assay type: functional, cell-based; details: HepG2, 48 h
HeLa [24] = experiment: cells; details: Homo sapiens, 72 h
Description: Cytotoxicity against human HeLa cells assessed as reduction in cell growth incubated for 72 hrs by MTT assay

[25] = Primary half life in mouse at 8 mg/kg, iv; assay type: ADME, organism-based; details: in vivo, read-out: alphat1/2
[26] = Antiproliferative activity against human HCT116-G7 cells assessed as reduction in cell viability measured after 72 hrs by MTT assay; assay type: functional, cell-based; details: HCT116-G7, 72 h
HCT-116 [27] = experiment: Antiproliferative activity against human HCT-116 cells assessed as reduction in cell viability measured after 72 hrs by MTT assay; assay type: functional, cell-based; details: HCT-116, 72 h
A549 [28] = experiment: cells; details: Homo sapiens, A549, 72 h
Description: Cytotoxicity against human A549 cells assessed as reduction in cell growth incubated for 72 hrs by MTT assay

A549 [29] = experiment: Cytotoxicity against human A549 cells assessed as reduction in cell growth measured after 72 hrs by MTT assay; assay type: functional, cell-based; details: A549, 72 h
L1210 [30] = experiment: Cytotoxicity against mouse L1210 cells assessed as reduction in cell growth measured after 72 hrs by MTT assay; assay type: functional, cell-based; details: L1210, 72 h
HCT-116 [31] = experiment: Cytotoxicity against human HCT-116 cells assessed as reduction in cell growth measured after 72 hrs by MTT assay; assay type: functional, cell-based; details: HCT-116, 72 h
HeLa [32] = experiment: Cytotoxicity against human HeLa cells assessed as reduction in cell growth measured after 72 hrs by MTT assay; assay type: functional, cell-based
[33] = Antiproliferative activity against human NLF cells expressing ABCG2 assessed as reduction in cell viability measured for 72 hrs by MTT assay; assay type: functional, cell-based
[34] = Antiproliferative activity against human SK-N-BE(2)-C cells expressing ABCG2 assessed as reduction in cell viability measured for 72 hrs by MTT assay; assay type: functional, cell-based
[35] = Ratio AUC in mouse tumor to plasma; assay type: ADME, cell-free; details: tumor and plasma, read-out: Ratio AUC

SMILES: CC[C@@]1(O)C(=O)OCc2c1cc1n(c2=O)Cc2c-1nc1cc(F)c(C)c3c1c2[C@@H](N)CC3.CS(=O)(=O)O.O.O [EXATECAN MESYLATE]
GI50 (A549 [1]): 0.914 ng/mL | GI50 (MCF7): 0.322 ng/mL | GI50 (K562 [2]): 10.4 ng/mL | GI50 (HCT-116 [3]): 0.347 ng/mL

Vd [4]: 0.73 L/kg
SMILES: CC[C@@]1(O)C(=O)OCc2c1cc1n(c2=O)Cc2c-1nc1ccc(O)cc1c2[Si](C)(C)C(C)(C)C [AR-67]

SMILES: CC[C@@]1(O)C(=O)OCc2c1cc1n(c2=O)Cc2cc3ccccc3nc2-1 [CAMPTOTHECIN]
IC50 (HCT-116 [5]): 2.01 ng/mL (≈ 0.00577 µM) | IC50 (L1210 [6]): 14 nM | IC50 (HeLa [7]): 8.9 nM | Activity (HCT-116 [8]): 37.5% | IC50 (A549 [9]): 0.32 nM | half-life [10]: 4.6 h | Vd [11]: 10.8 L/kg | solubility [12]: 1.83 µM (≈ 0.637 µg/mL) | GI50 (A549 [1]): 5.69 ng/mL (≈ 0.0163 µM) | EC50 (A549 [13]): 4.17 nM | clearance [14]: 38 mL/min/kg | IC50 (HepG2 [15]): 7.25 ng/mL (≈ 0.0208 µM) | LD50 [16]: 50 mg/kg | LD50 [17]: 38 mg/kg | AUC [18]: 212 µg/mL | EC50 [19]: 7.63 nM | GI50 (MCF7): 1.98 ng/mL (≈ 0.00568 µM) | GI50 (K562 [2]): 54.3 ng/mL (≈ 0.156 µM) | IC50 (K562 [20]): 2 nM | LD50 [21]: 38 mg/kg | IC50 (HCT-116 [22]): 2.01 nM | IC50 (HepG2 [23]): 7.25 nM | IC50 (HeLa [24]): 8.9 ng/mL (≈ 0.0255 µM) | GI50 (HCT-116 [3]): 3.86 ng/mL (≈ 0.0111 µM) | half-life [25]: 0.35 h | EC50 [26]: 20.3 nM | EC50 (HCT-116 [27]): 3.15 nM | IC50 (A549 [28]): 0.32 ng/mL (≈ 0.000919 µM)

SMILES: CCc1c2c(nc3ccc(O)cc13)-c1cc3c(c(=O)n1C2)COC(=O)[C@]3(O)CC [7-ETHYL-10-HYDROXYCAMPTOTHECIN]
IC50 (A549 [29]): 1.62 nM | IC50 (L1210 [30]): 8.9 nM | IC50 (HCT-116 [31]): 0.55 nM | IC50 (HeLa [32]): 22 nM

SMILES: CCc1c2c(nc3ccccc13)-c1cc3c(c(=O)n1C2)COC(=O)[C@]3(O)CC
IC50 [33]: 80 nM | IC50 [34]: 7 nM

SMILES: CC[C@@]1(O)C(=O)OCc2c1cc1n(c2=O)Cc2cc3ccc(O)cc3nc2-1
Kp [35]: 6.1
